{"source": "paper PMC9090415", "about": "“Discovery of small molecule inhibitors of Plasmodium falciparum apicoplast DNA polymerase” (Journal of Enzyme Inhibition and Medicinal Chemistry, 2022)", "target": "T1, bacteriophage T4 DNA polymerase (Enterobacteria phage T4, UniProt P04415)", "T1 construct": "made in house", "T1 sequence (P04415 1-898)": "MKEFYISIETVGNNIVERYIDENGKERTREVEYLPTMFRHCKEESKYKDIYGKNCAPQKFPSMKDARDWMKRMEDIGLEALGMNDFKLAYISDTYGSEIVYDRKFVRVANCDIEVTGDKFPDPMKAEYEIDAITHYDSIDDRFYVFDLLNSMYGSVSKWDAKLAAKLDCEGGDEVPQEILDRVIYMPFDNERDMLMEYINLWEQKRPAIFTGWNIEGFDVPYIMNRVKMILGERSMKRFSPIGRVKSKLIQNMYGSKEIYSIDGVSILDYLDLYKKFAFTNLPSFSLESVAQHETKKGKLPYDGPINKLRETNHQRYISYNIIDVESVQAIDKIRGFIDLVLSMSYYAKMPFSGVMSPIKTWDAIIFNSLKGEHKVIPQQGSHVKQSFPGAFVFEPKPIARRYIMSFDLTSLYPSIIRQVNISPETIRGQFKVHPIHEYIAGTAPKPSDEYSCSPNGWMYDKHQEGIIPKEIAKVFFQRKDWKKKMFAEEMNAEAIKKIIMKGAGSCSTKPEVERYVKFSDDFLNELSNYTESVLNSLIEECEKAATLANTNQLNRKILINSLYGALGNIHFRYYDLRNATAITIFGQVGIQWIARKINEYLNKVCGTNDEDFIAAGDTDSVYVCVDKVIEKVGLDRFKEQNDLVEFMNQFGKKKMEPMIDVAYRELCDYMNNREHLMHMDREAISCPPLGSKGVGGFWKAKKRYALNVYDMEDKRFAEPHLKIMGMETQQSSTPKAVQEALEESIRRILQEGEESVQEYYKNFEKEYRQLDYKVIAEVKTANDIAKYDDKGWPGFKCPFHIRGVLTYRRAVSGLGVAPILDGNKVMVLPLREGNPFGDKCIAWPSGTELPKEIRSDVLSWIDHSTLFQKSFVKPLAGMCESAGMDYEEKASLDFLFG", "experiment": "Counter-screen against bacteriophage T4 DNA polymerase", "type": "biochemical", "details": "for % inhibition T4 10' 2.5 / % inhibition T4 10' 5 / % inhibition T4 10' 10 / % inhibition T4 10' 20 / % inhibition T4 10' 40 / % inhibition T4 10' 80: read at 10'", "how_it_was_run": "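IC50 values come from dose-response testing of each compound against T4 DNA polymerase. This B-family polymerase was purified in-house and used as the counter-screen.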", "data": [{"smiles": "O=C(CCc1csc(NC(=O)Nc2ccccc2)n1)Nc1nc2ccccc2s1", "note": "[KU0177354]", "values": [{"measurement": "% inhibition T4 10' 2.5", "setting": "DRC-1, concentration 2.5", "result": 0.07751, "unit": "%"}, {"measurement": "% inhibition T4 10' 5", "setting": "DRC-1, concentration 5", "result": 7.751, "unit": "%"}, {"measurement": "% inhibition T4 10' 10", "setting": "DRC-1, concentration 10", "result": 13.5789, "unit": "%"}, {"measurement": "% inhibition T4 10' 20", "setting": "DRC-1, concentration 20", "result": 14.0599, "unit": "%"}, {"measurement": "% inhibition T4 10' 40", "setting": "DRC-1, concentration 40", "result": 17.0084, "unit": "%"}, {"measurement": "% inhibition T4 10' 80", "setting": "DRC-1, concentration 80", "result": 35.4647, "unit": "%"}, {"measurement": "% inhibition T4 70' 2.5", "setting": "DRC-1, read at 70', concentration 2.5", "result": 1.62, "unit": "%"}, {"measurement": "% inhibition T4 70' 5", "setting": "DRC-1, read at 70', concentration 5", "result": 6.65, "unit": "%"}, {"measurement": "% inhibition T4 70' 10", "setting": "DRC-1, read at 70', concentration 10", "result": 12.106, "unit": "%"}, {"measurement": "% inhibition T4 70' 20", "setting": "DRC-1, read at 70', concentration 20", "result": 12.7058, "unit": "%"}, {"measurement": "% inhibition T4 70' 40", "setting": "DRC-1, read at 70', concentration 40", "result": 16.9924, "unit": "%"}, {"measurement": "% inhibition T4 70' 80", "setting": "DRC-1, read at 70', concentration 80", "result": 32.2475, "unit": "%"}, {"measurement": "% inhibition T4 130' 2.5", "setting": "DRC-1, read at 130', concentration 2.5", "result": -0.4187, "unit": "%"}, {"measurement": "% inhibition T4 130' 5", "setting": "DRC-1, read at 130', concentration 5", "result": 3.945, "unit": "%"}, {"measurement": "% inhibition T4 130' 10", "setting": "DRC-1, read at 130', concentration 10", "result": 9.972, "unit": "%"}, {"measurement": "% inhibition T4 130' 20", "setting": "DRC-1, read at 130', concentration 20", "result": 11.4415, "unit": "%"}, {"measurement": "% inhibition T4 130' 40", "setting": "DRC-1, read at 130', concentration 40", "result": 15.4247, "unit": "%"}, {"measurement": "% inhibition T4 130' 80", "setting": "DRC-1, read at 130', concentration 80", "result": 30.1254, "unit": "%"}, {"measurement": "% inhibition T4 10' 2.5", "setting": "DRC-2, concentration 2.5", "result": -8, "unit": "%"}, {"measurement": "% inhibition T4 10' 5", "setting": "DRC-2, concentration 5", "result": 2.7, "unit": "%"}, {"measurement": "% inhibition T4 10' 10", "setting": "DRC-2, concentration 10", "result": 9, "unit": "%"}, {"measurement": "% inhibition T4 10' 20", "setting": "DRC-2, concentration 20", "result": 6.49, "unit": "%"}, {"measurement": "% inhibition T4 10' 40", "setting": "DRC-2, concentration 40", "result": 5.57, "unit": "%"}, {"measurement": "% inhibition T4 10' 80", "setting": "DRC-2, concentration 80", "result": 11, "unit": "%"}, {"measurement": "% inhibition T4 40' 2.5", "setting": "DRC-2, read at 40', concentration 2.5", "result": -8, "unit": "%"}, {"measurement": "% inhibition T4 40' 5", "setting": "DRC-2, read at 40', concentration 5", "result": 2, "unit": "%"}, {"measurement": "% inhibition T4 40' 10", "setting": "DRC-2, read at 40', concentration 10", "result": 9, "unit": "%"}, {"measurement": "% inhibition T4 40' 20", "setting": "DRC-2, read at 40', concentration 20", "result": 5.69, "unit": "%"}, {"measurement": "% inhibition T4 40' 40", "setting": "DRC-2, read at 40', concentration 40", "result": 5, "unit": "%"}, {"measurement": "% inhibition T4 40' 80", "setting": "DRC-2, read at 40', concentration 80", "result": 14, "unit": "%"}, {"measurement": "% inhibition T4 90' 2.5", "setting": "DRC-2, read at 90', concentration 2.5", "result": -7, "unit": "%"}, {"measurement": "% inhibition T4 90' 5", "setting": "DRC-2, read at 90', concentration 5", "result": 3, "unit": "%"}, {"measurement": "% inhibition T4 90' 10", "setting": "DRC-2, read at 90', concentration 10", "result": 8.56, "unit": "%"}, {"measurement": "% inhibition T4 90' 20", "setting": "DRC-2, read at 90', concentration 20", "result": 5.54, "unit": "%"}, {"measurement": "% inhibition T4 90' 40", "setting": "DRC-2, read at 90', concentration 40", "result": 5, "unit": "%"}, {"measurement": "% inhibition T4 90' 80", "setting": "DRC-2, read at 90', concentration 80", "result": 17, "unit": "%"}, {"measurement": "% inhibition T4 180' 2.5", "setting": "DRC-2, read at 180', concentration 2.5", "result": -11, "unit": "%"}, {"measurement": "% inhibition T4 180' 5", "setting": "DRC-2, read at 180', concentration 5", "result": -1.4, "unit": "%"}, {"measurement": "% inhibition T4 180' 10", "setting": "DRC-2, read at 180', concentration 10", "result": 3, "unit": "%"}, {"measurement": "% inhibition T4 180' 20", "setting": "DRC-2, read at 180', concentration 20", "result": 1.84, "unit": "%"}, {"measurement": "% inhibition T4 180' 40", "setting": "DRC-2, read at 180', concentration 40", "result": 2.2, "unit": "%"}, {"measurement": "% inhibition T4 180' 80", "setting": "DRC-2, read at 180', concentration 80", "result": 18, "unit": "%"}]}, {"smiles": "O=c1[nH]c2ccc([N+](=O)[O-])cc2c(-c2ccccc2)c1Sc1nc2ccccc2o1", "note": "[KU0067471]", "values": [{"measurement": "% inhibition T4 10'", "setting": "DRC-2, concentration 10", "result": 35, "unit": "%"}, {"measurement": "% inhibition T4 10'", "setting": "DRC-2, concentration 20", "result": 35, "unit": "%"}, {"measurement": "% inhibition T4 40'", "setting": "DRC-2, concentration 10", "result": 36, "unit": "%"}, {"measurement": "% inhibition T4 40'", "setting": "DRC-2, concentration 40", "result": 48, "unit": "%"}, {"measurement": "% inhibition T4 40'", "setting": "DRC-2, concentration 80", "result": 47, "unit": "%"}, {"measurement": "% inhibition T4 90'", "setting": "DRC-2, concentration 2.5", "result": 11, "unit": "%"}, {"measurement": "% inhibition T4 90'", "setting": "DRC-2, concentration 20", "result": 36, "unit": "%"}, {"measurement": "% inhibition T4 90'", "setting": "DRC-2, concentration 40", "result": 47, "unit": "%"}, {"measurement": "% inhibition T4 90'", "setting": "DRC-2, concentration 80", "result": 48, "unit": "%"}, {"measurement": "% inhibition T4 180'", "setting": "DRC-2, concentration 5", "result": 11, "unit": "%"}, {"measurement": "% inhibition T4 180'", "setting": "DRC-2, concentration 80", "result": 47, "unit": "%"}]}, {"smiles": "CC1(C)CC(=O)C2=C(C1)OC1=C(C(=O)CC(C)(C)C1)C2c1ccc(O)cc1", "note": "[KU0194226]", "values": [{"measurement": "% inhibition T4 10'", "setting": "DRC-2, concentration 40", "result": 18, "unit": "%"}, {"measurement": "% inhibition T4 40'", "setting": "DRC-2, concentration 5", "result": 17, "unit": "%"}, {"measurement": "% inhibition T4 40'", "setting": "DRC-2, concentration 10", "result": 18, "unit": "%"}, {"measurement": "% inhibition T4 40'", "setting": "DRC-2, concentration 40", "result": 12, "unit": "%"}, {"measurement": "% inhibition T4 40'", "setting": "DRC-2, concentration 80", "result": 30, "unit": "%"}, {"measurement": "% inhibition T4 90'", "setting": "DRC-2, concentration 10", "result": 17, "unit": "%"}, {"measurement": "% inhibition T4 90'", "setting": "DRC-2, concentration 40", "result": 12, "unit": "%"}, {"measurement": "% inhibition T4 90'", "setting": "DRC-2, concentration 80", "result": 30, "unit": "%"}, {"measurement": "% inhibition T4 180'", "setting": "DRC-2, concentration 2.5", "result": 18, "unit": "%"}, {"measurement": "% inhibition T4 180'", "setting": "DRC-2, concentration 5", "result": 12, "unit": "%"}, {"measurement": "% inhibition T4 180'", "setting": "DRC-2, concentration 40", "result": 12, "unit": "%"}, {"measurement": "% inhibition T4 180'", "setting": "DRC-2, concentration 80", "result": 30, "unit": "%"}]}, {"smiles": "COc1ccc(-c2cc3nc4c(c(=O)n3[nH]2)CCN(C(=O)CCc2ccccc2)C4)cc1", "note": "[Molecule 17, COc1ccc(cc1)c1[nH]n2c(c1)nc1c(c2=O)CCN(C1)C(=O)CCc1ccccc1]", "values": [{"measurement": "% inhibition T4 10'", "setting": "DRC-2, concentration 2.5", "result": -22, "unit": "%"}, {"measurement": "% inhibition T4 10'", "setting": "DRC-2, concentration 5", "result": -46, "unit": "%"}, {"measurement": "% inhibition T4 10'", "setting": "DRC-2, concentration 10", "result": -38, "unit": "%"}, {"measurement": "% inhibition T4 10'", "setting": "DRC-2, concentration 20", "result": -44, "unit": "%"}, {"measurement": "% inhibition T4 10'", "setting": "DRC-2, concentration 40", "result": -44, "unit": "%"}, {"measurement": "% inhibition T4 40'", "setting": "DRC-2, concentration 5", "result": -38, "unit": "%"}, {"measurement": "% inhibition T4 40'", "setting": "DRC-2, concentration 10", "result": -30, "unit": "%"}, {"measurement": "% inhibition T4 90'", "setting": "DRC-2, concentration 10", "result": -25, "unit": "%"}, {"measurement": "% inhibition T4 90'", "setting": "DRC-2, concentration 40", "result": -30, "unit": "%"}, {"measurement": "% inhibition T4 90'", "setting": "DRC-2, concentration 80", "result": -46, "unit": "%"}, {"measurement": "% inhibition T4 180'", "setting": "DRC-2, concentration 2.5", "result": -13, "unit": "%"}, {"measurement": "% inhibition T4 180'", "setting": "DRC-2, concentration 10", "result": -22, "unit": "%"}, {"measurement": "% inhibition T4 180'", "setting": "DRC-2, concentration 20", "result": -23, "unit": "%"}, {"measurement": "% inhibition T4 180'", "setting": "DRC-2, concentration 40", "result": -25, "unit": "%"}]}]}
